Source: PubChem BioAssay (NCI)
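Growth conditions: 96-well plates. Treatment: test compound, 48 hours, 5 concentrations. Analysis: linear interpolation between bracketing concentrations; unreached endpoints set to highest concentration. GI50 = concentration required for 50% inhibition of growth. TGI is the concentration that stops growth completely.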

Tests used:
Assay in all cases: growth of human tumour cells (NCI), 48 h
MCF7 breast = system: MCF7 breast
CAKI-1 renal = system: CAKI-1 renal
A498 renal = system: A498 renal
SF-539 CNS = system: SF-539 CNS
UO-31 renal = system: UO-31 renal
RPMI-8226 leukemia = system: RPMI-8226 leukemia
HOP-62 NSCLC = system: HOP-62 NSCLC
NCI-H226 lung = system: NCI-H226 lung
MDA-MB-435 = system: MDA-MB-435
ACHN renal = system: ACHN renal
SF-295 CNS = system: SF-295 CNS
UACC-257 melanoma = system: UACC-257 melanoma
SK-MEL-5 melanoma = system: SK-MEL-5 melanoma
HL-60(TB) leukemia = system: HL-60(TB) leukemia
HCT-15 colon = system: HCT-15 colon
DU-145 prostate = system: DU-145 prostate
MOLT-4 leukemia = system: MOLT-4 leukemia
KM12 colon = system: KM12 colon
M14 melanoma = system: M14 melanoma
SK-MEL-28 melanoma = system: SK-MEL-28 melanoma
SW-620 colon = system: SW-620 colon
CCRF-CEM leukemia = system: CCRF-CEM leukemia
OVCAR-3 ovarian = system: OVCAR-3 ovarian
K-562 leukemia = system: K-562 leukemia
786-0 renal = system: 786-0 renal
T-47D breast = system: T-47D breast

With `CC(C)(Cl)CCC1=C(Cl)C(=O)c2ccccc2C1=O` the TGI (MCF7 breast) was 4.05 µM, the GI50 (CAKI-1 renal) was 1.87 µM and the TGI (CAKI-1 renal) was 3.46 µM. The GI50 (A498 renal) was 1.85 µM, the TGI (A498 renal) was 12 µM and the GI50 (SF-539 CNS) was 2.01 µM. For the same compound, the TGI (SF-539 CNS) was 4.58 µM, the GI50 (UO-31 renal) was 1.59 µM and the TGI (UO-31 renal) was 3.15 µM. For the same compound, the GI50 (RPMI-8226 leukemia) was 1.78 µM, the TGI (RPMI-8226 leukemia) was 4.65 µM and the GI50 (HOP-62 NSCLC) was 4.71 µM. The TGI (HOP-62 NSCLC) was 17 µM, the GI50 (NCI-H226 lung) was 3.38 µM and the TGI (NCI-H226 lung) was 14.5 µM. It also gave a GI50 (MDA-MB-435) of 2.15 µM, a TGI (MDA-MB-435) of 4.62 µM and a GI50 (ACHN renal) of 1.65 µM. The TGI (ACHN renal) was 3.03 µM, the GI50 (SF-295 CNS) was 3.22 µM and the TGI (SF-295 CNS) was 11 µM. The GI50 (UACC-257 melanoma) was 1.67 µM, the TGI (UACC-257 melanoma) was 3.2 µM and the GI50 (SK-MEL-5 melanoma) was 1.78 µM. It also gave a TGI (SK-MEL-5 melanoma) of 3.57 µM, a GI50 (HL-60(TB) leukemia) of 1.33 µM and a TGI (HL-60(TB) leukemia) of 3.84 µM. For the same compound, the GI50 (HCT-15 colon) was 1.58 µM, the TGI (HCT-15 colon) was 3.05 µM and the GI50 (DU-145 prostate) was 6.12 µM. For the same compound, the TGI (DU-145 prostate) was 18.2 µM, the GI50 (MOLT-4 leukemia) was 1.91 µM and the TGI (MOLT-4 leukemia) was 6.04 µM. It also gave a GI50 (KM12 colon) of 2.28 µM, a TGI (KM12 colon) of 5.32 µM and a GI50 (M14 melanoma) of 2.28 µM. It also gave a TGI (M14 melanoma) of 5.51 µM, a GI50 (SK-MEL-28 melanoma) of 2.4 µM and a TGI (SK-MEL-28 melanoma) of 5.26 µM. It also gave a GI50 (SW-620 colon) of 1.74 µM, a TGI (SW-620 colon) of 3.63 µM and a GI50 (CCRF-CEM leukemia) of 1.22 µM. The TGI (CCRF-CEM leukemia) was 4.79 µM, the GI50 (OVCAR-3 ovarian) was 1.72 µM and the TGI (OVCAR-3 ovarian) was 3.17 µM. For the same compound, the GI50 (K-562 leukemia) was 1.25 µM, the TGI (K-562 leukemia) was 10.6 µM and the GI50 (786-0 renal) was 3.41 µM. For the same compound, the TGI (786-0 renal) was 10.7 µM, the GI50 (T-47D breast) was 1.97 µM and the TGI (T-47D breast) was 5.52 µM.
